target: human TRPA1 (Homo sapiens (Human), UniProt O75762); test: Measurement of TRPA1 antagonist activity (1): intracellular calcium increase; type: cell-based; settings: 293T cells transfected with human TRPA1 expression plasmid; allylisothiocyanate 20 μM stimulation; intracellular calcium fluorescence; read-out: hTRPA1 IC50
In short: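 Calcium-flux readout of TRPA1 block: compound given 10 min before 20 μM (final) allylisothiocyanate, fluorescence tracked 5 min. Cells were 293T transiently expressing human TRPA1, dye-loaded 1 hr in HBSS, 20 mM HEPES, pH 7.2. Inhibition scaled between agonist-only and buffer-only responses; IC50 by sigmoid fitting.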

Sequence of human TRPA1 (O75762 whole entry): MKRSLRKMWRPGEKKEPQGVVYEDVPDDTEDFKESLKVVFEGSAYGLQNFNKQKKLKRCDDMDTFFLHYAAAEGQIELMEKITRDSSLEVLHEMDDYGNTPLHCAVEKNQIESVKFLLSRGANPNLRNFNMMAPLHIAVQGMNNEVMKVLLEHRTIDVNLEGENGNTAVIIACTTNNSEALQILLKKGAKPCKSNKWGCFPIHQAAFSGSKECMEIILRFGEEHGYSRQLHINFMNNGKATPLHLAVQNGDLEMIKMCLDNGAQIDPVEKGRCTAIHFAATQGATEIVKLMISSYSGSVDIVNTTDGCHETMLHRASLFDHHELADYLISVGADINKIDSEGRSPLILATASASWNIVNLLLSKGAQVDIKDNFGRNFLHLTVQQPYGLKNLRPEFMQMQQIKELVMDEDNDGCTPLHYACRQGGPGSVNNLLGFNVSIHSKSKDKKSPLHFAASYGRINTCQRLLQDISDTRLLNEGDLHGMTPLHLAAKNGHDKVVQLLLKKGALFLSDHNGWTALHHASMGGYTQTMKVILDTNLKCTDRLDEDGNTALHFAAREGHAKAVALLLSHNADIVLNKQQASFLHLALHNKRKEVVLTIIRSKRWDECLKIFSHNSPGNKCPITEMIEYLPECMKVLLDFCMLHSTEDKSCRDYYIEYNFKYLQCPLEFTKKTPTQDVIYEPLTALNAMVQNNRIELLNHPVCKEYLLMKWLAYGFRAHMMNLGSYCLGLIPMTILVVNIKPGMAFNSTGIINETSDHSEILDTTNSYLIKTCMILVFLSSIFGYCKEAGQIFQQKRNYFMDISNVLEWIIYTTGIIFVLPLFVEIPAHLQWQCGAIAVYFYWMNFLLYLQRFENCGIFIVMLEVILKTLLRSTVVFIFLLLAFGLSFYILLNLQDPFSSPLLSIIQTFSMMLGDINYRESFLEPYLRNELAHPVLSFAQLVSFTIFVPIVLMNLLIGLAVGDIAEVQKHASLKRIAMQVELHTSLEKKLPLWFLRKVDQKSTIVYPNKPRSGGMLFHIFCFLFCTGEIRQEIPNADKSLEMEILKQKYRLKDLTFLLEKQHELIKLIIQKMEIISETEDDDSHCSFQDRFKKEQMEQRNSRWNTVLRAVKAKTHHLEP

Point of comparison: `O=C(NCc1cccc(-c2ccc(C(F)(F)F)nc2)c1)[C@@H]1CCN1S(=O)(=O)c1cc2cc(F)ccc2o1` [Example 100, (2S)-1-(5-fluorobenzofuran-2-yl)sulfonyl-N-[[3-[6-(trifluoromethyl)-3-pyridyl]phenyl]methyl]azetidine-2-carboxamide], IC50 1.6 nM. Against it:
- C[C@H](NS(=O)(=O)c1cc2cc(F)ccc2o1)C(=O)NCc1cccc(OCc2ccc(C(F)(F)F)cc2)c1 [Example 49, (2S)-2-[(5-fluorobenzofuran-2-yl)sulfonylamino]-N-[[3-[[4-(trifluoromethyl)phenyl]methoxy]-phenyl]methyl]propanamide] — 11-fold higher, 18 nM
- O=C(NCc1cccc(S(=O)(=O)c2ccc(C(F)(F)F)cc2)c1)[C@@H]1CCCN1S(=O)(=O)c1cc2ccccc2o1 [Example 322, (2S)-1-(benzofuran-2-ylsulfonyl)-N-[[3-[4-(trifluoromethyl)phenyl]sulfonylphenyl]methyl]pyrrolidine-2-carboxamide] — 190-fold higher, 310 nM
- O=C(NCc1cccc(-c2ccc(C(F)(F)F)nn2)c1)[C@@H]1CCCN1S(=O)(=O)c1cc2ccccc2o1 [Example 197, (2S)-1-(benzofuran-2-ylsulfonyl)-N-[[3-[6-(trifluoromethyl)pyridazin-3-yl]phenyl]methyl]-pyrrolidine-2-carboxamide] — 1.9-fold higher, 3 nM
- CNC(=O)c1ccc(-c2cccc(CNC(=O)[C@@H]3CCCN3S(=O)(=O)c3cc4cc(F)ccc4o3)c2)cn1 [Example 162, 5-[3-[[[(2S)-1-(5-fluorobenzofuran-2-yl)sulfonylpyrrolidine-2-carbonyl]amino]methyl]phenyl]-N-methyl-pyridine-2-carboxamide] — 32-fold higher, 51 nM
- O=C(NCc1cc(-c2ccc(C(F)(F)F)cc2O)ncn1)[C@@H]1CCCN1S(=O)(=O)c1cc2ccccc2o1 [Example 288, (2S)-1-(benzofuran-2-ylsulfonyl)-N-[[6-[2-hydroxy-4-(trifluoromethyl)phenyl]pyrimidin-4-yl]methyl]pyrrolidine-2-carboxamide] — 1.6-fold higher, 2.5 nM
- O=C(NCc1ccc(O)c(-c2ccc(C(F)(F)F)cn2)c1)[C@@H]1CCCN1S(=O)(=O)c1cc2cnccc2o1 [Example 273, (2S)-1-furo[3,2-c]pyridin-2-ylsulfonyl-N-[[4-hydroxy-3-[5-(trifluoromethyl)-2-pyridyl]phenyl]methyl]-pyrrolidine-2-carboxamide] — the same, 1.6 nM
- O=C(NCc1cc(-c2ccc(C(F)(F)F)cn2)ccn1)[C@@H]1CCCN1S(=O)(=O)c1cc2c(Cl)nccc2o1 [Example 265, (2S)-1-(4-chlorofuro[3,2-c]pyridin-2-yl)sulfonyl-N-[[4-[5-(trifluoromethyl)-2-pyridyl]-2-pyridyl]methyl]pyrrolidine-2-carboxamide] — 7.5-fold higher, 12 nM
- O=C(NC1(c2ccnc(-c3ccc(C(F)(F)F)nc3)c2)CC1)[C@@H]1CCCN1S(=O)(=O)c1cc2ccccc2o1 [Example 218, (2S)-1-(benzofuran-2-ylsulfonyl)-N-[1-[2-[6-(trifluoromethyl)-3-pyridyl]-4-pyridyl]cyclopropyl]-pyrrolidine-2-carboxamide] — 60-fold higher, 96 nM
- CN(C)c1cc(-c2cccc(CNC(=O)[C@@H]3CCCN3S(=O)(=O)c3cc4cc(F)ccc4o3)c2)ccn1 [Example 96, (2S)-N-[[3-[2-(dimethylamino)-4-pyridyl]phenyl]methyl]-1-(5-fluorobenzofuran-2-yl)sulfonyl-pyrrolidine-2-carboxamide] — 160-fold higher, 250 nM
- C[C@H](NS(=O)(=O)c1cc2ccccc2o1)C(=O)NCc1cccc(-c2ccc(C(F)(F)F)nc2)c1 [Example 101, (2S)-2-(benzofuran-2-ylsulfonylamino)-N-[[3-[6-(trifluoromethyl)-3-pyridyl]phenyl]methyl]propanamide] — 17-fold higher, 27 nM
- O=C(NCc1cccc(OCc2ccsc2)c1)[C@@H]1CCCN1S(=O)(=O)c1cc2ccccc2o1 [Example 6, (2S)-1-(benzofuran-2-ylsulfonyl)-N-[[3-(3-thienylmethoxy)phenyl]methyl]pyrrolidine-2-carboxamide] — 4.7-fold higher, 7.5 nM
- O=C(NCc1cc(-c2ccc(OC(F)(F)F)cc2)ccn1)[C@@H]1CCCN1S(=O)(=O)c1cc2cc(F)ccc2o1 [Example 222, (2S)-1-(5-fluorobenzofuran-2-yl)sulfonyl-N-[[4-[4-(trifluoromethoxy)phenyl]-2-pyridyl]methyl]pyrrolidine-2-carboxamide] — within 1.5-fold, 2.4 nM
- N#Cc1ccc(-c2cc(CNC(=O)[C@@H]3CCCN3S(=O)(=O)c3cc4cc(F)ccc4o3)ccn2)cc1 [Example 132, (2S)-N-[[2-(4-cyanophenyl)-4-pyridyl]methyl]-1-(5-fluorobenzofuran-2-yl)sulfonyl-pyrrolidine-2-carboxamide] — 4.7-fold higher, 7.6 nM
- O=C(NCc1cccc(OCc2ccc(C(F)(F)F)cc2)c1)[C@@H]1CC(F)(F)CN1S(=O)(=O)c1cc2ccccc2o1 [Example 47, (2S)-1-(benzofuran-2-ylsulfonyl)-4,4-difluoro-N-[[3-[[4-(trifluoromethyl)phenyl]methoxy]-phenyl]methyl]pyrrolidine-2-carboxamide] — 15-fold higher, 24 nM
- O=C(NCc1cccc(-c2ccc(N3CCCC3)nc2)c1)[C@@H]1CCCN1S(=O)(=O)c1cc2cc(F)ccc2o1 [Example 160, (2S)-1-(5-fluorobenzofuran-2-yl)sulfonyl-N-[[3-(6-pyrrolidin-1-yl-3-pyridyl)phenyl]methyl]-pyrrolidine-2-carboxamide] — 12-fold higher, 19 nM
- O=C(NCc1cnnc(-c2ccc(C(F)(F)F)cc2)c1)[C@@H]1CCCN1S(=O)(=O)c1cc2ccccc2o1 [Example 208, (2S)-1-(benzofuran-2-ylsulfonyl)-N-[[6-[4-(trifluoromethyl)phenyl]-pyridazin-4-yl]methyl]pyrrolidine-2-carboxamide] — 21-fold higher, 34 nM
- C[C@H](NS(=O)(=O)c1cc2cnccc2o1)C(=O)NCc1cc(-c2ccc(C(F)(F)F)cn2)ccn1 [Example 304, (2S)-2-(furo[3,2-c]pyridin-2-ylsulfonylamino)-N-[[4-[5-(trifluoromethyl)-2-pyridyl]-2-pyridyl]methyl]propanamide] — 220-fold higher, 350 nM
- CN(C)c1cccc(COc2cccc(CNC(=O)[C@@H]3CCCN3S(=O)(=O)c3cc4cc(F)ccc4o3)c2)n1 [Example 26, (2S)-N-[[3-[[6-(dimethylamino)-2-pyridyl]methoxy]phenyl]-methyl]-1-(5-fluorobenzofuran-2-yl)sulfonyl-pyrrolidine-2-carboxamide] — 14-fold higher, 23 nM
- O=C(NCc1cc(-c2ccc(C(F)(F)F)cn2)cnn1)[C@@H]1CCCN1S(=O)(=O)c1cc2ccccc2o1 [Example 212, (2S)-1-(benzofuran-2-ylsulfonyl)-N-[[5-[5-(trifluoromethyl)-2-pyridyl]pyridazin-3-yl]methyl]pyrrolidine-2-carboxamide] — 17-fold higher, 27 nM
- O=C(NCc1cc(-c2ccc(C(F)(F)F)cn2)c(O)cn1)[C@@H]1CCCN1S(=O)(=O)c1cc2ccccc2o1 [Example 215, (2S)-1-(benzofuran-2-ylsulfonyl)-N-[[5-hydroxy-4-[5-(trifluoromethyl)-2-pyridyl]-2-pyridyl]methyl]pyrrolidine-2-carboxamide] — within 1.5-fold, 2.1 nM
- C[C@H](NS(=O)(=O)c1cc2cc(F)ccc2o1)C(=O)NCc1cc(-c2ccc(C(F)(F)F)cc2O)ncn1 [Example 290, (2S)-2-[(5-fluorobenzofuran-2-yl)sulfonylamino]-N-[[6-[2-hydroxy-4-(trifluoromethyl)phenyl]pyrimidin-4-yl]methyl]propanamide] — 3.6-fold higher, 5.7 nM

— US10626112B2, “Heterocyclic sulfonamide derivative and medicine comprising same” (EA PHARMA CO., LTD., priority 2014, dated 2020)
